Measurements: paper PMC9820345, “Metal Complexes of a 5-Nitro-8-Hydroxyquinoline-Proline Hybrid with Enhanced Water Solubility Targeting Multidrug Resistant Cancer Cells” (International Journal of Molecular Sciences, 2022)

Columns and labels:
OATP1B1 = target: T1, OATP1B1 (Homo sapiens, UniProt Q9Y6L6); assay: OATP uptake assay, OATP1B1; format: cell-based; details: human, 10 μM
T1 construct: expressed in transfected cells; host or cells: A431 epidermoid carcinoma cells
T1 sequence (Q9Y6L6 1-691): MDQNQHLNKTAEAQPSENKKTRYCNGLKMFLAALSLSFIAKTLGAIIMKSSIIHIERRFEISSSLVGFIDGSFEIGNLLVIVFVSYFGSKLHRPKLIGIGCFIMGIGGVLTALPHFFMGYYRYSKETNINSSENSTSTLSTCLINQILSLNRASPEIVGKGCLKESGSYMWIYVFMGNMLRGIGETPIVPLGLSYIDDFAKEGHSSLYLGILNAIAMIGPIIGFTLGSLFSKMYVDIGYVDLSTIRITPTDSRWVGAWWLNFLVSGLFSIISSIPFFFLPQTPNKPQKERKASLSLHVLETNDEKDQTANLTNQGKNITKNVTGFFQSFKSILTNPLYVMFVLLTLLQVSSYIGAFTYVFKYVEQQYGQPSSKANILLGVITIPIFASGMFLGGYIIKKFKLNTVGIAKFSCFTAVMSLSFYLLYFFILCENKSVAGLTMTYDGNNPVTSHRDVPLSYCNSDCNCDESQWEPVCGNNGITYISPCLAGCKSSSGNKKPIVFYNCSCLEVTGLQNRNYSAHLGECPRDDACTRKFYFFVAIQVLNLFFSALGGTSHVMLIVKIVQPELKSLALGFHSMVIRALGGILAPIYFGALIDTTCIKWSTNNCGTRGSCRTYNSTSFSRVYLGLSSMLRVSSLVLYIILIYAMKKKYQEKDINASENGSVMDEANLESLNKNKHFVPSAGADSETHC
Method: Cell lines: A431 cells overexpressing OATP1B1 or OATP2B1, and their mock transfected controls were generated and characterized previously. The cell lines were cultured in DMEM (Gibco, Thermofisher Scientific, Waltham, MA, USA), supplemented with 10% fetal bovine serum, 2 mM L-glutamine, 100 μg/mL streptomycin, and 100 units/mL penicillin at 37 °C and 5% CO2.
OATP uptake assay: Prior to the experiment, A431 cells (8 × 10^4/well) were seeded on 96-well plates in 200 μL cell culture medium. After 16–24 h, the cells were washed with 200 μL PBS, three times and pre-incubated with 20–200 μM HQNO2-L-Pro, or buffer without HQNO2-L-Pro for 5 min at 37 °C in 50 μL HBSS (Hank’s Balanced Salt Solution, pH 7.4; OATP1B1) or uptake buffer (pH 5.5; OATP2B1 [63]). The reaction was started by the addition of disulfopyrene (6,8-dihydroxy-1,3-pyrenedisulfonic acid disodium salt, Sigma, Darmstadt, Germany) at a final concentration of 10 μM (OATP1B1) or pyranine (8-hydroxypyrene-1,3-pyrenetrisulfonic acid trisodium salt, Sigma, Darmstadt, Germany) at a final concentration of 20 μM (OATP2B1), and the cells were further incubated at 37 °C for 10 min (OATP1B1) or 15 min (OATP2B1). The reaction was stopped by removing the supernatant after which the cells were washed three times with ice-cold PBS. Fluorescence (in 200 μL PBS) was determined using an Enspire plate reader (PerkinElmer, Waltham, MA, USA) with excitation/emission wavelengths of 460/510 nm. OATP-dependent transport was calculated by subtracting fluorescence measured in mock transfected cells. Transport activity was calculated based on the fluorescence signal in the absence (100%) of HQNO2-L-Pro. Experiments were repeated in at least three biological replicates.

[1] = Formation constants of Cu(II) complexes by UV-vis spectrophotometric titrations; format: physicochemical; details: I = 0.1 M KCl, 25.0 °C
Method: An Agilent Cary 8454 diode array spectrophotometer (Santa Clara, CA, USA) was used to obtain UV-vis spectra in the wavelength range 200–1000 nm, while spectra were recorded for the Fe(II)-containing samples using an Avantes (Avantes B.V., Apeldoorn, The Nederlands) AvaSpec-ULS2048CL-EVO spectrometer with an AvaLight-DHc light source and FDP-7UVIR200-2-VAR transmission dip probe. The titrations for the Fe(II)-containing samples were performed in a laboratory glove box (GP(Campus), Jacomex) (O2 content ≤ 1 ppm). The path length (ℓ) was 1 cm in most cases (the actual ℓ is always indicated in the legends of the figures). The concentrations of the ligands and complexes were between 40 and 200 µM, and 0.2 M KNO3 for the organometallic complexes or 0.1 M KCl for the Fe(II/III), Cu(II), and Zn(II) complexes were used to adjust the constant ionic strength. For HSA containing samples, complex concentrations were 50 µM, and 0.5, and 2 equiv. biomolecules were added for kinetic studies, respectively. For HSA model containing samples, complex concentrations were 50 µM, and the model concentrations were 0–150 µM and 0–500 µM, respectively, and the pH was 7.4 (PBS’). Spectra were always background and baseline corrected. The computer program HypSpec was used to obtain stability constants. Hydrolysis constants of the Fe(III), Fe(II), RuCym, and RhCp* species were included in the speciation models (see Table S4 with the data taken from References).

[2] = Aqueous solubility at physiological pH (S7.4); format: physicochemical; details: water, pH 7.4, aqueous buffer
HSA = target: T2, HSA (Homo sapiens, UniProt P02768); assay: Time course of complex-HSA interaction (UV-vis); format: binding; details: complex–HSA (1:1 or 2:1); pH 7.4
T2 construct: purchased Sigma-Aldrich (Darmstadt, Germany) A8763
Method: First, changes in the UV-vis spectra were followed in time in the complex—HSA (1:1 or 2:1) system, and it was concluded that the equilibrium can be reached within ca. 30 min for the RhCp* complex (Figure S25). […] The binding of the RuCym complex to HSA without the release of the bidentate ligand was also confirmed by CZE measurement (Figure S27). Most likely a donor atom of the protein binds at the coordination site of the co-ligand.
An Agilent Cary 8454 diode array spectrophotometer (Santa Clara, CA, USA) was used to obtain UV-vis spectra in the wavelength range 200–1000 nm, while spectra were recorded for the Fe(II)-containing samples using an Avantes (Avantes B.V., Apeldoorn, The Nederlands) AvaSpec-ULS2048CL-EVO spectrometer with an AvaLight-DHc light source and FDP-7UVIR200-2-VAR transmission dip probe. The titrations for the Fe(II)-containing samples were performed in a laboratory glove box (GP(Campus), Jacomex) (O2 content ≤ 1 ppm). The path length (ℓ) was 1 cm in most cases (the actual ℓ is always indicated in the legends of the figures). The concentrations of the ligands and complexes were between 40 and 200 µM, and 0.2 M KNO3 for the organometallic complexes or 0.1 M KCl for the Fe(II/III), Cu(II), and Zn(II) complexes were used to adjust the constant ionic strength. […]

T2 sequence (P02768 25-609): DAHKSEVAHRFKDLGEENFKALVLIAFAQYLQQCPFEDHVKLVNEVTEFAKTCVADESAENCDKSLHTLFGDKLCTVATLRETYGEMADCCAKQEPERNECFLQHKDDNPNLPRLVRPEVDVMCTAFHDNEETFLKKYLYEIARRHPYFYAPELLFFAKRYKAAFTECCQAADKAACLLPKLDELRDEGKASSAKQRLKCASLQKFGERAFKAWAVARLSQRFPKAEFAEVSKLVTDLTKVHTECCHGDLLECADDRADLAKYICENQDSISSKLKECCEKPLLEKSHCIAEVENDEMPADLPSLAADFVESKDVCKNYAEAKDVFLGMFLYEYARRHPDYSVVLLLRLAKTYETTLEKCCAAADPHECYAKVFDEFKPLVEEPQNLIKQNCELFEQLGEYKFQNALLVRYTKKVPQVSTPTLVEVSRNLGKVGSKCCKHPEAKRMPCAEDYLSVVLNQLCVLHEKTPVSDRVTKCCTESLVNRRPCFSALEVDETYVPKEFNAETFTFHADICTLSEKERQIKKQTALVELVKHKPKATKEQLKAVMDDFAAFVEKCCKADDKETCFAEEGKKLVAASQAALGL

| activity at 10 min, 100 µM (OATP1B1; A431 cells overexpressing OATP1B1, pH 7.4, probe disulfopyrene, 100 μM, absence of compound = 100%, n = 3, ± SD, read-out: transport activity % OATP1B1) [%] | activity at 10 min, 10 µM (OATP1B1; A431 cells overexpressing OATP1B1, pH 7.4, probe disulfopyrene, absence of compound = 100%, n = 3, ± SD, read-out: transport activity % OATP1B1) [%] | inhibition at 10 min, 100 µM (OATP1B1; probe disulfopyrene, at 100 μM, A431 cells overexpressing OATP1B1, pH 7.4, read-out: inhibition of OATP1B1 function) [%] | logβ [M(HL)2] [1] | logβ [M(HL)(L)] [1] | logβ [M(HL)] [1] | logβ [M(L)2] [1] | logβ [M(L)] [1] | solubility [2] [mM] | time to reach equilibrium with HSA (HSA) [min] | Compound |
| --- | --- | --- | --- | --- | --- | --- | --- | --- | --- | --- |
| 88.1 ± 5.9 | 106 ± 4.1 | < 20 | 38.60 ± 0.03 | 31.75 ± 0.03 | 19.40 ± 0.03 | 22.99 ± 0.03 | 14.45 ± 0.03 | > 10 |  | O=C(O)[C@@H]1CCCN1Cc1cc([N+](=O)[O-])c2cccnc2c1O [HQNO2-L-Pro, (2S)-1-((8-hydroxy-5-nitroquinolin-7-yl)methyl)pyrrolidin-1-ium-2-carboxylate] |
|  |  |  |  |  |  |  |  |  | ≤ 30 | CC1=C(C)[C](C)([Rh]([Cl])[O]c2c(C[NH+]3CCC[C@H]3C(=O)O)cc([N+](=O)[O-])c3cccnc23)C(C)=C1C.[Cl-] [RhCp*-HQNO2-L-Pro, [RhCp*(HQNO2-L-Pro)Cl]Cl] |
